We go through 27 molecules from article PMC3113660 (Journal of medicinal chemistry, 2010).

Structures are written as SMILES. Read-outs that look alike come from different tables or passages of the source. Where only a bound is given, the exact number is not on record here.

In data set [1] the test system is Trypanosoma brucei rhodesiense (STIB900). The experiment in a line: In vitro growth inhibition assay of T. brucei rhodesiense. Particulars: for SIT, selectivity index for T. brucei rhodesiense: ratio IC50 (L6)/IC50 (T. brucei rhodesiense). It counts as cell-based.
The test system of data set [2] is Plasmodium falciparum (K1, resistant to chloroquine). The experiment in a line: In vitro growth inhibition assay of P. falciparum. It is filed as cell-based. Particulars: for IC50: Plasmodium falciparum, K1, read-out: antiplasmodial IC50, P. falciparum, in vitro.
Data set [3] deals with Leishmania donovani (MHOM/SD/62/1S-CL2D) axenic amastigotes. As to the kind of experiment: Antileishmanial assay. It counts as cell-based. Particulars: for activity against L. donovani (in words): in vitro, axenic amastigotes.
The subject of data set [4] is T. brucei rhodesiense STIB900. It counts as in vivo, mice. Particulars: for cures: number of mice that survive and are parasite free for 60 days; for toxicity in the in vivo model (mice died due to toxicity): infected mice.
The mark [5] stands for this setting: relative to bis(N-isopropyl)amidine 32.

One may read the IC50 as the point on the concentration scale where inhibition reaches its midpoint.

Regarding `CC(C)NC(=N)c1ccc(-n2cc(-c3cccc(C(=N)NC(C)C)c3)nn2)cc1.Cl.Cl` [Compound 17, 1-(4-N-Isopropylamidinophenyl)-4-(3-N-isopropylamidinophenyl)-1H-1,2,3-triazole Dihydrochloride], the “fold less active against T. brucei rhodesiense” value in data set [1] (relative to diamidine 16) worked out at 67 fold. In addition, the IC50 in data set [2] is < 58 nM.

`COc1ccc(C(=N)N)cc1-c1cn(-c2ccc(C(=N)N)cc2)nn1.Cl.Cl` [Compound 22, 4-(5-Amidino-2-methoxyphenyl)-1-(4-amidinophenyl)-1H-1,2,3-triazole Dihydrochloride]: the “activity against L. donovani (in words)” value in data set [3] was “active”. The “SIT, selectivity index for T. brucei rhodesiense” value (shortened to “SIT, selectivity index”) in data set [1] was >24750. Besides, the IC50 in data set [2] was < 58 nM. In addition, in data set [4] (4 × 5 mg/kg ip), the cures result was “curing at least two out of four animals”.

Take `Cl.Cl.N=C(N)c1cccc(-c2cn(-c3cccc(C(=N)N)c3)nn2)c1` [Compound 1, 1,4-Bis(3-amidinophenyl)-1H-1,2,3-triazole Dihydrochloride]: the “activity against L. donovani (in words)” value in data set [3] is on record as “active”. Also, in data set [2], the IC50 is < 58 nM. Moreover, the cures entry in data set [4] (4 × 5 mg/kg ip) is on record as “no activity”.

For the molecule `COc1cc(C(=N)NC(C)C)ccc1-c1cn(-c2cccc(C(=N)NC(C)C)c2)nn1.Cl.Cl` [Compound 38, 4-(4-N-Isopropylamidino-2-methoxyphenyl)-1-(3-N-isopropylamidinophenyl)-1H-1,2,3-triazole Dihydrochloride], in data set [1] (relative to diamidine 37), the “fold less active against T. brucei rhodesiense” value is given as 141 fold. For the same molecule, in data set [2], the IC50 is < 58 nM.

For the molecule `CC(C)NC(=N)c1ccc(-c2cn(-c3cc(C(=N)NC(C)C)ccc3O)nn2)cc1.Cl.Cl` [Compound 41, 1-(5-N-Isopropylamidino-2-hydroxyphenyl)-4-(4-N-isopropylamidinophenyl)-1H-1,2,3-triazole Dihydrochloride], the “fold less active against T. brucei rhodesiense” value in data set [1] (setting [5]) is 33 fold. Also, in data set [2] (setting [5]), the “fold less active against P. falciparum” value was determined as 123 fold.

On to `COc1cc(C(=N)NC(C)C)ccc1-n1cc(-c2cccc(C(=N)NC(C)C)c2)nn1.Cl.Cl` [Compound 20, 1-(4-N-Isopropylamidino-2-methoxyphenyl)-4-(3-N-isopropylamidinophenyl)-1H-1,2,3-triazole Dihydrochloride], for which the “fold less active against T. brucei rhodesiense” value in data set [1] (relative to congener 19) came out at 178 fold. Further, in data set [2], the IC50 was < 58 nM.

`Cl.Cl.N=C(N)c1cccc(-n2cc(-c3ccc(C(=N)N)cc3O)nn2)c1` [Compound 43, 4-(4-Amidino-2-hydroxyphenyl)-1-(3-amidinophenyl)-1H-1,2,3-triazole Dihydrochloride]: in data set [1], the “SIT, selectivity index” value was >26250. The half-maximal inhibitory concentration (IC50) in data set [2] is < 58 nM. Also, in data set [4] (4 × 5 mg/kg ip), the cures result is given as “curing at least two out of four animals”.

Regarding `COc1cc(C(=N)N)ccc1-n1cc(-c2cccc(C(=N)N)c2)nn1.Cl.Cl` [Compound 19, 1-(4-Amidino-2-methoxyphenyl)-4-(3-amidinophenyl)-1H-1,2,3-triazole Dihydrochloride], the “activity against L. donovani (in words)” value in data set [3] is “active”. Also, the “SIT, selectivity index” value in data set [1] was >17455. Besides, in data set [2], the IC50 is < 58 nM.

Take `Cl.Cl.N=C(N)c1ccc(-n2cc(-c3cc(C(=N)N)ccc3O)nn2)cc1` [Compound 28, 4-(5-Amidino-2-hydroxyphenyl)-1-(4-amidinophenyl)-1H-1,2,3-triazole Dihydrochloride]: the “activity against L. donovani (in words)” value in data set [3] is “active”. Moreover, in data set [2], the IC50 is < 58 nM.

For the molecule `COc1ccc(C(=N)NC(C)C)cc1-c1cn(-c2ccc(C(=N)NC(C)C)cc2)nn1.Cl.Cl` [Compound 23, 4-(5-N-Isopropylamidino-2-methoxyphenyl)-1-(4-N-isopropylamidinophenyl)-1H-1,2,3-triazole Dihydrochloride], the IC50 in data set [2] was < 58 nM. Further, the “toxicity in the in vivo model (mice died due to toxicity)” value in data set [4] (4 × 5 mg/kg ip, 5 mg/kg) is “toxic”.

As to `Cl.Cl.N=C(N)c1cccc(-c2cn(-c3ccc(C(=N)N)cc3O)nn2)c1` [Compound 25, 1-(4-Amidino-2-hydroxyphenyl)-4-(3-amidinophenyl)-1H-1,2,3-triazole Dihydrochloride], the “fold less active against T. brucei rhodesiense” value in data set [1] (relative to diamidine 16) is ~22 fold.

As to `Cl.Cl.N=C(N)c1ccc(-c2cn(-c3cccc(C(=N)N)c3)nn2)cc1` [Compound 31, 1-(3-Amidinophenyl)-4-(4-amidinophenyl)-1H-1,2,3-triazole Dihydrochloride], in data set [4] (4 × 5 mg/kg ip), the cures entry is “curing one out of four mice”.

Regarding `Cl.Cl.N=C(N)c1cccc(-n2cc(-c3cc(C(=N)N)ccc3O)nn2)c1` [Compound 13, 4-(5-Amidino-2-hydroxyphenyl)-1-(3-amidinophenyl)-1H-1,2,3-triazole Dihydrochloride], the “activity against L. donovani (in words)” value in data set [3] is given as “active”. Moreover, in data set [1] (relative to diamidine 1), the “fold less active against T. brucei rhodesiense” value worked out at 2 fold. The IC50 in data set [2] is < 58 nM.

For `COc1cc(C2=NCCN2)ccc1-c1cn(-c2cccc(C3=NCCN3)c2)nn1.Cl.Cl` [Compound 39, 4-[4-(4,5-Dihydro-1H-imidazol-2-yl)-2-methoxyphenyl]-1-[3-(4,5-dihydro-1H-imidazol-2-yl)phenyl]-1H-1,2,3-triazole Dihydrochloride], the “fold less active against T. brucei rhodesiense” value in data set [1] (relative to diamidine 37) stood at 804 fold.

Take `COc1cc(C(=N)N)ccc1-c1cn(-c2cccc(C(=N)N)c2)nn1.Cl.Cl` [Compound 37, 4-(4-Amidino-2-methoxyphenyl)-1-(3-amidinophenyl)-1H-1,2,3-triazole Dihydrochloride]: the IC50 in data set [2] is < 58 nM. In addition, in data set [4] (4 × 1 mg/kg ip), the cures result is given as “no cures”.

For `Cl.Cl.N=C(N)c1cccc(-c2cn(-c3cc(C(=N)N)ccc3O)nn2)c1` [Compound 10, 1-(5-Amidino-2-hydroxyphenyl)-4-(3-amidinophenyl)-1H-1,2,3-triazole Dihydrochloride], the “fold less active against T. brucei rhodesiense” value in data set [1] (relative to diamidine 1) came to 600 fold. Also, the “fold less potent against P. falciparum” value came to 320 fold in data set [2] (relative to 2-methoxy analogue 4) and 425 fold in data set [2] (relative to dication 1).

Take `Cl.Cl.Oc1ccc(C2=NCCN2)cc1-c1cn(-c2ccc(C3=NCCN3)cc2)nn1` [Compound 30, 4-[5-(4,5-Dihydro-1H-imidazol-2-yl)-2-hydroxyphenyl]-1-[4-(4,5-dihydro-1H-imidazol-2-yl)phenyl]-1H-1,2,3-triazole Dihydrochloride]: the “activity against L. donovani (in words)” value in data set [3] is reported as “active”. In addition, in data set [2], the IC50 is < 58 nM.

Consider `CC(C)NC(=N)c1cccc(-c2cn(-c3cccc(C(=N)NC(C)C)c3)nn2)c1.Cl.Cl` [Compound 2, 1,4-Bis(3-N-isopropylamidinophenyl)-1H-1,2,3-triazole Dihydrochloride], for which the “fold less active against T. brucei rhodesiense” value in data set [1] (relative to diamidine 1) is ~170 fold.

Consider `CC(C)NC(=N)c1ccc(-c2cn(-c3cccc(C(=N)NC(C)C)c3)nn2)cc1.Cl.Cl` [Compound 32, 1-(3-N-Isopropylamidinophenyl)-4-(4-N-isopropylamidinophenyl)-1H-1,2,3-triazole Dihydrochloride], for which, in data set [1] (relative to diamidine 31), the “fold less active against T. brucei rhodesiense” value is reported as 77 fold. Also, in data set [2], the 50% inhibitory concentration (IC50) was < 58 nM.

Take `CC(C)NC(=N)c1ccc(-c2cn(-c3ccc(C(=N)NC(C)C)cc3)nn2)cc1.Cl.Cl` [Compound 47, 1,4-Bis(4-N-isopropylamidinophenyl)-1H-1,2,3-triazole Dihydrochloride]: the half-inhibitory concentration (IC50) in data set [2] is < 58 nM. The “toxicity in the in vivo model (mice died due to toxicity)” value in data set [4] (4 × 5 mg/kg ip) is recorded as “toxic”.

Regarding `Cl.Cl.c1cc(C2=NCCN2)cc(-c2cn(-c3ccc(C4=NCCN4)cc3)nn2)c1` [Compound 18, 1-[4-(4,5-Dihydro-1H-imidazol-2-yl)phenyl]-4-(3-(4,5-dihydro-1H-imidazol-2-yl)phenyl)-1H-1,2,3-triazole Dihydrochloride], in data set [1] (relative to diamidine 16), the “fold less active against T. brucei rhodesiense” value is on record as 25 fold.

On to `Cl.Cl.Oc1ccc(C2=NCCN2)cc1-n1cc(-c2ccc(C3=NCCN3)cc2)nn1` [Compound 42, 1-[5-(4,5-Dihydro-1H-imidazol-2-yl)-2-hydroxyphenyl]-4-[4-(4,5-dihydro-1H-imidazol-2-yl)phenyl]-1H-1,2,3-triazole Dihydrochloride], for which the “fold less active against T. brucei rhodesiense” value in data set [1] (relative to diimidazoline 33) is reported as 43 fold.

With `COc1ccc(C2=NCCN2)cc1-n1cc(-c2cccc(C3=NCCN3)c2)nn1.Cl.Cl` [Compound 6, 1-[5-(4,5-Dihydro-1H-imidazol-2-yl)-2-methoxyphenyl]-4-[3-(4,5-dihydro-1H-imidazol-2-yl)phenyl]-1H-1,2,3-triazole Dihydrochloride], the “fold as active against T. brucei rhodesiense” value in data set [1] (relative to 2-O-demethylated analogue 12) is on record as 13 fold. Also, the concentration for half-maximal inhibition (IC50) in data set [2] was < 58 nM. For the same molecule, the “fold more active against P. falciparum” value in data set [2] (relative to diimidazoline 3) came to 12 fold.

As for `COc1cc(C(=N)N)ccc1-c1cn(-c2ccc(C(=N)N)cc2)nn1.Cl.Cl` [Compound 52, 4-(4-Amidino-2-methoxyphenyl)-1-(4-amidinophenyl)-1H-1,2,3-triazole Dihydrochloride], the cures result in data set [4] (4 × 5 mg/kg ip) is listed as “curing at least two out of four animals”.

With `N=C(N)c1ccc(OCCCCCOc2ccc(C(=N)N)cc2)cc1` [pentamidine, 1,5-bis(4-amidinophenoxy)pentane, reference compound], the concentration for half-maximal inhibition (IC50) in data set [3] (Leishmania donovani, read-out: L. donovani IC50) amounted to 1800 nM.

For the molecule `COc1ccc(C(=N)N)cc1-n1cc(-c2cccc(C(=N)N)c2)nn1.Cl.Cl` [Compound 4, 1-(5-Amidino-2-methoxyphenyl)-4-(3-amidinophenyl)-1H-1,2,3-triazole Dihydrochloride], the “fold as active against T. brucei rhodesiense” value in data set [1] (relative to 2-O-demethylated analogue 10) is given as 1000 fold. Besides, the IC50 in data set [2] is < 58 nM.

On to `COc1ccc(C(=N)N)cc1-c1cn(-c2cccc(C(=N)N)c2)nn1.Cl.Cl` [Compound 7, 4-(5-Amidino-2-methoxyphenyl)-1-(3-amidinophenyl)-1H-1,2,3-triazole Dihydrochloride], for which the “fold less active against T. brucei rhodesiense” value in data set [1] (relative to diamidine 1) was found to be 20 fold. In addition, in data set [2], the IC50 is < 58 nM.
